{"source": "patent US20070190068A1", "about": "“uPAR-binding molecule-drug conjugates and uses thereof” (priority 2005, published 2007)", "tested_on": "MDA-231 GFP tumors", "assay": "Human breast carcinoma MDA-MB-231 GFP xenograft in nude mice (tumor volume)", "format": "in vivo, BALB/c (nu/nu) mice", "conditions": "week 14", "source_text": "FIG. 5. Preliminary dose defining study. Effect of anti-human uPAR IgG (Mab 3936), doxorubicin, Mab 3936-Doxorubicin conjugate on xenograft human breast cancer tumor model in nude mice (MDA-231 GFP tumors). Tumor volume (mm^3) from week 8 to week 11 post tumor cell inoculation were compared. Bar graph from left to right: animals received control serum, doxorubicin via intravenous (DOX I.V.), doxorubicin via […] (DOX I.P.), Mab 3936 (3936) or Mab 3936-doxorubicin conjugate (3936+DOX) (2 mg/animal).\nFIG. 6. Effect of anti-human uPAR IgG (Mab 3936), doxorubicin, Mab 3936-doxorubicin conjugate on xenograft human breast cancer tumor model in nude mice (MDA-231 GFP tumors). Tumor volume (mm^3) from week 5 to week 15 post tumor cell inoculation were compared. Bar graph from left to right: animals received control serum, doxorubicin via intravenous, Mab 3936, doxorubicin via […], and Mab 3936-doxorubicin conjugate.\nFIG. 7. […]\nFor xenograft studies, 4 to 6 weeks old BALB/c (nu/nu) female mice were obtained from Charles River Inc. The mice weighed an average of 20 grams. […] The tumor mass was measured in two dimensions with calipers, twice a week.\nThroughout the course of these studies, all control and experimental mice were monitored for any noticeable side effects. […]", "data": [{"smiles": "COc1cccc2c1C(=O)c1c(O)c3c(c(O)c1C2=O)C[C@@](O)(C(=O)CO)C[C@@H]3O[C@H]1C[C@H](N)[C@H](O)[C@H](C)O1", "note": "[doxorubicin]", "values": [{"measurement": "tumor volume", "value": 330, "unit": "mm^3"}]}]}
